Data from patent US20090118366A1, “ORGANIC COMPOUNDS” (Nabriva Therapeutics Forschungs GmbH, priority 2007, published 2009).

Test system: cryopreserved primary human hepatocytes
Test: Metabolic stability in cryopreserved primary human hepatocytes
Type: in vitro ADME
Conditions: 4 h incubation with human hepatocytes, compound concentration 5 μg/mL, 37° C., LC/MS
Method: The metabolic stability for compounds of the present invention was determined by using cryopreserved primary human hepatocytes. 1×10^6 cells/mL were incubated in the absence and the presence of 5 and 25 μg/mL of the test compounds at 37° C., 5% CO2 for 4 hours, To evaluate the in vitro degradation under assay conditions, a sample of each test compound was incubated also in the absence of hepatocytes. The incubation was stopped by freezing the reaction mixture. After ultrafiltration and washing of the filter with acetonitrile, the sample solution was analyzed for parent compound disappearance or metabolite appearance using LC/MS (ion trap). The metabolic stability value corresponds to the detected parent compound in % after incubation.

Substance	parent compounds found (metabolic stability value)
14-O-{[(1R, 2R, 5S)-5-Amino-2-hydroxy-cyclohexylsulfanyl]-acetyl}-mutilin hydrochloride+(1s, 2S, 5R) diastereomer hydrochloride [Example 2]	66%
14-O-{[(1R, 3S)-3-Amino-cyclohexylsulfanyl]-acetyl}-mutilin hydrochloride and the (1S, S3R) diastereomer hydrochloride thereof	24%
